{"source": "patent US20250296937A1", "about": "“CYCLIC BISBENZYL TETRAHYDROISOQUINOLINE COMPOUND, AND PREPARATION METHOD THEREFOR AND USE THEREOF” (Shanghai Institute of Materia Medica, Chinesse Academy of …, priority 2021, published 2025)", "test_system": "LPS-induced acute inflammation", "assay": "In vivo LPS-induced acute inflammation in mice (Q-PCR of lung/spleen, serum Elisa)", "set-up": "species or system C57BL/6 mice", "settings": "30 mg/kg orally 2 h after 3 mg/kg LPS i.p.; samples 4 h after administration", "experimental": "In this example, the effects of compounds on LPS-induced acute inflammation model in vivo were analyzed by the expression levels of inflammatory factors; the mRNA expression levels of tissue inflammation-related indicators were detected by the method of real-time quantitative PCR (Q-PCR), and the levels of inflammatory factors in serum were detected by the method of Elisa. C57BL/6 mice were purchased from SLAC, and the Elisa kits were purchased from Novusbio, with item no. 890860 for IL-6 and item no. 266117 for TNF-α. […]\nConstruction of inflammation model in mice: C57BL/6 mice were randomly divided into three groups: one control group, five experimental animals; one LPS modeling group, with five experimental animals; and two treatment groups, with five experimental animals. […] The blood was collected from the orbit of mice in each group at 4 h after the administration of the drug, and the spleen and lung tissues were collected after the euthanasia. mRNA was extracted from lung and spleen tissues respectively, and real-time quantitative PCR was performed after reverse transcription to assess the mRNA expression level of inflammation-related indicators, and Elisa assay was performed after serum extraction to assess the secretion level of inflammatory factors.", "note": "Entries after “also recorded” stand apart in the source; their conditions may differ."}
{"smiles": "COc1cc2c3cc1Oc1c(OC)c(OC)cc4c1[C@H](Cc1ccc(cc1)Oc1cc(ccc1C(N)=O)C[C@H]3N(C)CC2)N(C)CC4", "note": "[Compound 4]", "values": [{"measurement": "inflammatory factors and chemokines, mRNA levels and cytokine secretion levels, LPS-induced acute inflammation in mice", "result": "significantly inhibited; also recorded: significant decrease"}]}
